Test results published in ChEMBL document CHEMBL1145522, “Recognition of trimethyllysine by a chromodomain is not driven by the hydrophobic effect” (Proc Natl Acad Sci U S A, 2007).

Experiment: Binding affinity to Drosophila HP1 chromodomain by fluorescence polarization assay

## C[C@H](N)C(=O)N[C@@H](CCCNC(=N)N)C(=O)N[C@H](C(=O)N[C@@H](CCCCN)C(=O)N[C@@H](CCC(N)=O)C(=O)N[C@H](C(=O)N[C@@H](C)C(=O)N[C@@H](CCCNC(=N)N)C(=O)N[C@@H](CCCCN)C(=O)N[C@@H](CO)C(=O)N[C@H](C(=O)NCC(=O)NCC(=O)N[C@@H](CCCCN)C(=O)N[C@@H](C)C(=O)N[C@@H](Cc1ccc(O)cc1)C(=O)O)[C@@H](C)O)[C@@H](C)O)[C@@H](C)O
  Kd: > 1000 µM
